Values quoted from earlier work in US8293868B2 (priority 2004, dated 2012).

Test system: α-subunit of the P. americana high conductance calcium-activated potassium channel (pSlo)

charybdotoxin
block of pSlo channels previously reported: about 80%
